Data on eleven compounds can be found in ChEMBL document CHEMBL1128891, “Synthesis of indane derivatives as mechanism-based inhibitors of dopamine -hydroxylase” (Bioorg Med Chem Lett, 1995).

Test [1] addresses T1, Dopamine beta-hydroxylase (Bos taurus) (UniProt P15101).
T1 sequence (whole entry): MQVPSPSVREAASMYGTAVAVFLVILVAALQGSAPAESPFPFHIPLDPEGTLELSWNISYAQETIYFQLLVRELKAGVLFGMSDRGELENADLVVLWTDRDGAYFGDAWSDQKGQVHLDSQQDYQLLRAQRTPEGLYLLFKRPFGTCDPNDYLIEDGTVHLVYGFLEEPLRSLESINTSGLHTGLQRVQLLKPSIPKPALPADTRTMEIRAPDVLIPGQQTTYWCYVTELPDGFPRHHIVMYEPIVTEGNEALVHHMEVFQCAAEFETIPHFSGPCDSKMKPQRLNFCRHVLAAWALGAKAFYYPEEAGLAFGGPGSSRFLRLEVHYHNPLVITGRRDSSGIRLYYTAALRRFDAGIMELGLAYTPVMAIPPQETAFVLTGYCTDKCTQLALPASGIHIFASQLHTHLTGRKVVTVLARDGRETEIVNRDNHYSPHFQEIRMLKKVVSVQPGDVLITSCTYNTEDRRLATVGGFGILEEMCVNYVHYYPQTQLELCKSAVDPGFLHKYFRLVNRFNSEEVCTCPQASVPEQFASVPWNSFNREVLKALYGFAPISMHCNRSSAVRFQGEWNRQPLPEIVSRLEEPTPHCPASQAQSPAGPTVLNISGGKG
As to the kind of experiment: Kinetic constant for inactivation (k inact) of Dopamine beta-Hydroxylase (DBH) from bovine adrenal medulla. Type of test: tissue-based.

For test [2], the target named is T2, Dopamine beta-hydroxylase (Bos taurus, UniProt P15101).
T2 sequence (P15101 whole entry): T1 sequence (whole entry)
As to the kind of experiment: Kinetic constant for inhibition (KI) of Dopamine beta-Hydroxylase (DBH) from bovine adrenal medulla. Type of test: tissue-based.

A short description of test [3]: Ratio of kinetic constant k inact to KI was determined.

On to `c1c2c(cc3c1OCO3)C1CC1C2` (configuration not stated), for which the K inact in test [1] worked out at 0.06 min⁻¹. This compound also yielded a Ki in test [2] of 160 µM. Moreover, the Ratio in test [3] came to 370 M⁻¹ min⁻¹.

In turn, `COc1ccc2c(c1)C1NC1C2` (configuration not stated) registered a K inact in test [1] of 0.03 min⁻¹. This compound displayed a Ki in test [2] of 400 µM. Further, the Ratio in test [3] came to 70 M⁻¹ min⁻¹.

`COc1ccc2c(c1)C1CC1C2` (configuration not stated) displayed a K inact in test [1] of 0.11 min⁻¹. Moreover, the affinity in test [2] corresponds to a Ki of 1120 µM. In addition, the Ratio in test [3] stood at 100 M⁻¹ min⁻¹.

Turning to `c1c2c(cc3c1OCO3)C1OC1C2` (configuration not stated), in test [1], the K inact came to 0.06 min⁻¹. This compound also gave a Ki in test [2] of 1010 µM. Also, the Ratio in test [3] worked out at 60 M⁻¹ min⁻¹.

In the case of `Oc1cc2c(cc1O)C1CC1C2` (configuration not stated), the K inact in test [1] was 0.129 min⁻¹. This compound had a Ki in test [2] of 109 µM. Also, in test [3], the Ratio amounted to 1180 M⁻¹ min⁻¹.

The compound `Oc1ccc2c(c1)C1CC1C2` (configuration not stated) returned a K inact in test [1] of 0.23 min⁻¹. The same compound came in with a Ki in test [2] of 150 µM. Moreover, the Ratio in test [3] was determined as 1530 M⁻¹ min⁻¹.

In test [2], `Oc1ccc(CC2CC2)cc1` came in with a Ki of 12000 µM. In addition, in test [3], the Ratio was found to be 150 M⁻¹ min⁻¹.

With `COc1ccc(CC2CC2)cc1`, the K inact in test [1] came out at 0.018 min⁻¹. Further, the Ki in test [2] stood at 240 µM. Besides, in test [3], the Ratio came to 75 M⁻¹ min⁻¹.

Turning to `c1ccc2c(c1)CC1CC21` (configuration not stated), the K inact in test [1] was 0.2 min⁻¹. This compound registered a Ki in test [2] of 3030 µM. In addition, the Ratio in test [3] was determined as 70 M⁻¹ min⁻¹.

In test [1], `c1ccc2c(c1)CC1OC21` (configuration not stated) had a K inact of 0.08 min⁻¹. Further, the affinity in test [2] corresponds to a Ki of 1060 µM. Further, the Ratio in test [3] was 70 M⁻¹ min⁻¹.

`COc1ccc2c(c1)C1OC1C2` (configuration not stated) returned a K inact in test [1] of 0.07 min⁻¹. Moreover, in test [2], the Ki was found to be 650 µM. Moreover, in test [3], the Ratio turned out to be 110 M⁻¹ min⁻¹.

As usually defined, the Ki is the dissociation constant of the complex between target and ligand, obtained from inhibition or displacement. Low readings indicate higher affinity, high ones lower affinity.
